Where two headings read alike, the source gives them in different places.
How the values were obtained:
[1] = tested on: Caco-2 monolayers
[2] = tested on: Caco-2 monolayers; settings: standard Caco-2 assay on collagen type-I; cited from earlier work
[3] = cited from earlier work
[4] = tested on: Caco-2 monolayers; test: Caco-2 monolayer drug transport assay; settings: Fig. 6; 2 h; LC-MS

Row | SMILES | Papp for cells on eECM with decreased CBD and decreased stiffness compared to cells grown on collagen [1] | absorption predicted by the Caco-2 assay [2] | in vivo absorption [3] | Papp for cells on eECM with decreased CBD and decreased stiffness compared to cells grown on collagen [4]
1 | CNC(=C[N+](=O)[O-])NCCSCc1ccc(CN(C)C)o1 [ranitidine] | significantly higher | little to no absorption | 51% | 
2 | NC(N)=Nc1nc(CSCCC(N)=NS(N)(=O)=O)cs1 [famotidine] |  |  | 35% | 
3 | C[C@@H]1C[C@H]2[C@@H]3CCC4=CC(=O)C=C[C@]4(C)[C@@]3(F)[C@@H](O)C[C@]2(C)[C@@]1(O)C(=O)CO [dexamethasone] |  |  | > 85% | 
4 | CC(C)(C)NCC(O)COc1cccc2c1CC(O)C(O)C2 (stereo not shown) [nadolol] |  |  | 45% | significantly higher
